In brackets after ≈: the same amount, converted by molar mass. Read-outs that look alike come from different tables or passages of the source.
Columns and labels:
IL-4 production = test: Inhibitory activity against Th2 cytokine produced from sensitized spleen cells: IL-4; assay type: cell-based, mouse; settings: Mus musculus, 72 h; for activity at 0.001 µM / activity at 0.01 µM / activity at 0.1 µM: read-out: Inhibitory activity against IL-4 production
Procedure: (§1) A 7-week-old BALB/c mouse was immunized intraperitoneally with aluminum hydroxide gel (4 mg, 100 μl) having 10 μg of ovalbumin adsorbed thereon, and it was subjected to additional immunization with the same agent 14 days later. Seven days thereafter, spleen was taken out, and suspended in RPMI-1640 comprising inactivated fetal bovine serum (10%), 2-mercaptoethanol ([…]), penicillin G (100 U/ml), and streptomycin (100 μg/ml). Thus, a splenic cell suspension was prepared. Ovalbumin (0.5 mg/ml) and a test compound were added to a splenic cell suspension (5×10^6 cell/200 μl/well), and the resultant was cultured at 37° C. in the presence of 5% CO2 for 3 days. The cytokine level in the culture supernatant was quantified by ELISA. IFN-γ and IL-4 were assayed using a kit available from Amersham, and IL-5 was assayed using a kit available from Endogen.

mouse spleen cell = test: cells; assay type: cell-based; settings: Mus musculus, 24 h, read-out: Interferon-inducing activity: Minimum effective concentration
Balb/c male mouse = test: Interferon-inducing activity in mouse (in vivo), serum interferon titer after oral dosing
IL-5 production = test: Inhibitory activity against Th2 cytokine produced from sensitized spleen cells: IL-5; assay type: cell-based, mouse; settings: Mus musculus, 72 h; for activity at 0.001 µM / activity at 0.01 µM / activity at 0.1 µM: read-out: Inhibitory activity against IL-5 production
Procedure: as §1

[1] = Solubility in citric acid/disodium phosphate buffers; settings: for solubility at 30 min: thermodynamic from solid
Procedure: 5.53% citric acid (monohydrate) and 1.75% disodium phosphate (anhydrous) were mixed together to prepare buffers (pH 2.5, 5.5, 7.4). A compound was added thereto, the mixture was stirred in a vortex mixer and subjected to ultrasonication for 30 minutes. Thereafter, the resultant was stirred in a vortex mixer again and then centrifuged at 15,000 rpm for 20 minutes. The levels of the compounds in the supernatants were then quantified by HPLC.

[2] = concentration 0.1 nM, OVA-sensitized BALB/c spleen cells, 3 days
[3] = concentration 1 nM, OVA-sensitized BALB/c spleen cells, 3 days
[4] = concentration 10 nM, OVA-sensitized BALB/c spleen cells, 3 days
[5] = concentration 100 nM, OVA-sensitized BALB/c spleen cells, 3 days
[6] = dosage 0.03 mg/kg oral, serum 2 h after dosing, Balb/c mouse
[7] = dosage 0.1 mg/kg oral, serum 2 h after dosing, Balb/c mouse
[8] = dosage 0.3 mg/kg oral, serum 2 h after dosing, Balb/c mouse
[9] = citric acid/disodium phosphate buffer, pH 2.5, aqueous buffer
[10] = citric acid/disodium phosphate buffer, pH 5.5, aqueous buffer
[11] = citric acid/disodium phosphate buffer, pH 7.4, aqueous buffer

SMILES	minimal effective concentration (mouse spleen cell)	Interferon-inducing activity (Balb/c male mouse; [8])	Interferon-inducing activity (Balb/c male mouse; po, 0.1 mg/kg, 2 h)	Interferon-inducing activity (Balb/c male mouse; po, 0.3 mg/kg, 2 h)	solubility at 30 min [1, 9]	solubility at 30 min [1, 10]	solubility at 30 min [1, 11]	further results
CCCCOc1nc(N)c2nc(O)n(Cc3ccc(Cl)nc3)c2n1 [Example 1, 2-Butoxy-9-(6-chloro-3-pyridylmethyl)-8-hydroxyadenine]	0.001 µM	623 ± 32 U/ml	–	–	–	–	–	activity at 0.0001 µM (IL-4 production; [2]): 98%; activity at 0.001 µM (IL-4 production; [3]): 7%; activity at 0.01 µM (IL-4 production; [4]): 2%; activity at 0.1 µM (IL-4 production; [5]): < 1%; Interferon-inducing activity (Balb/c male mouse; [6]): 123 ± 87 U/ml; Interferon-inducing activity (Balb/c male mouse; [7]): 322 ± 95 U/ml; activity at 0.0001 µM (IL-5 production; [2]): 116%; activity at 0.001 µM (IL-5 production; [3]): 41%; activity at 0.01 µM (IL-5 production; [4]): 16%; activity at 0.1 µM (IL-5 production; [5]): 15%
CCCCOc1nc(N)c2nc(O)n(Cc3ccc(OCC)nc3)c2n1 [Example 3, 2-Butoxy-9-(6-ethoxy-3-pyridylmethyl)-8-hydroxyadenine]	0.001 µM	–	353 ± 73 U/ml	1966 ± 532 U/ml	–	–	–	–
CCCCOc1ccc(Cn2c(O)nc3c(N)nc(OCCCC)nc32)cn1 [Example 4, 2-Butoxy-9-(6-n-butoxy-3-pyridylmethyl)-8-hydroxyadenine]	0.01 µM	–	–	–	–	–	–	–
CCCCOc1nc(N)c2nc(O)n(Cc3cccnc3Cl)c2n1 [Example 5, 2-Butoxy-9-(2-chloro-3-pyridylmethyl)-8-hydroxyadenine]	0.003 µM	–	133 ± 33 U/ml	473 ± 9 U/ml	–	–	–	–
CCCCOc1nc(N)c2nc(O)n(Cc3cccnc3OC)c2n1 [Example 6, 2-Butoxy-8-hydroxy-9-(2-methoxy-3-pyridylmethyl)adenine]	0.001 µM	–	569 ± 42 U/ml	1222 ± 248 U/ml	–	–	–	–
CCCCOc1nc(N)c2nc(O)n(Cc3cnc(Cl)c(OC)c3)c2n1 [Example 7, 2-Butoxy-9-(6-chloro-5-methoxy-3-pyridylmethyl)-8-hydroxyadenine]	0.001 µM	845 ± 22 U/ml	–	–	–	–	–	Interferon-inducing activity (Balb/c male mouse; [7]): 347 ± 149 U/ml
CCCCOc1nc(N)c2nc(O)n(Cc3cccnc3)c2n1 [Example 8, 2-Butoxy-8-hydroxy-9-(3-pyridylmethyl)adenine]	0.001 µM	–	725 ± 141 U/ml	936 ± 438 U/ml	0.784 mg/mL (≈ 2490 µM)	0.02 mg/mL (≈ 63.6 µM)	0.018 mg/mL (≈ 57.3 µM)	Interferon-inducing activity (Balb/c male mouse; po, 0.01 mg/kg, 2 h): 13 ± 5 U/ml; Interferon-inducing activity (Balb/c male mouse; po, 0.03 mg/kg, 2 h): 167 ± 97 U/ml
CCCCOc1nc(N)c2nc(O)n(Cc3ccncc3)c2n1 [Example 9, 2-Butoxy-8-hydroxy-9-(4-pyridylmethyl)adenine]	0.003 µM	–	–	539 ± 107 U/ml	0.35 mg/mL (≈ 1110 µM)	0.004 mg/mL (≈ 12.7 µM)	0.003 mg/mL (≈ 9.54 µM)	–
CCCCOc1nc(N)c2nc(O)n(Cc3cnccn3)c2n1 [Example 10]	–	733 ± 256 U/ml	–	–	–	–	–	activity at 0.001 µM (IL-4 production): 54%; activity at 0.01 µM (IL-4 production): 3%; activity at 0.1 µM (IL-4 production): < 1%; Interferon-inducing activity (Balb/c male mouse; [6]): 89 ± 22 U/ml; Interferon-inducing activity (Balb/c male mouse; [7]): 409 ± 267 U/ml; activity at 0.001 µM (IL-5 production): 91%; activity at 0.01 µM (IL-5 production): 32%; activity at 0.1 µM (IL-5 production): 15%; solubility at 30 min ([1]; pH 2.5, aqueous buffer): 0.034 mg/mL (≈ 108 µM); solubility at 30 min ([1]; pH 5.5, aqueous buffer): 0.015 mg/mL (≈ 47.6 µM); solubility at 30 min ([1]; pH 7.4, aqueous buffer): 0.01 mg/mL (≈ 31.7 µM)
CCCCOc1nc(N)c2nc(O)n(Cc3cnc(Cl)c(Cl)c3)c2n1 [Example 11, 2-Butoxy-9-(5,6-dichloro-3-pyridylmethyl)-8-hydroxyadenine]	0.003 µM	568 ± 160 U/ml	–	–	–	–	–	Interferon-inducing activity (Balb/c male mouse; [7]): 279 ± 177 U/ml
CCCCOc1nc(N)c2nc(O)n(Cc3ccc(Cl)nc3Cl)c2n1 [Example 12, 2-Butoxy-9-(2,6-dichloro-3-pyridylmethyl)-8-hydroxyadenine]	0.01 µM	31 ± 5 U/ml	–	–	–	–	–	–
CCCCOc1nc(N)c2nc(O)n(Cc3ccc(N4CCCCC4)nc3)c2n1 [Example 13, 2-Butoxy-9-(6-piperidino-3-pyridylmethyl)-8-hydroxyadenine]	0.003 µM	–	–	304 ± 138 U/ml	–	–	–	–
CCCCOc1nc(N)c2nc(O)n(Cc3ccc(N4CCCC4)nc3)c2n1 [Example 14, 2-Butoxy-9-(6-(1-pyrrolidinyl)-3-pyridylmethyl)-8-hydroxyadenine]	0.001 µM	–	–	570 ± 63 U/ml	–	–	–	–
CCCCOc1nc(N)c2nc(O)n(Cc3ccc(N4CCOCC4)nc3)c2n1 [Example 15, 2-Butoxy-9-(6-morpholino-3-pyridylmethyl)-8-hydroxyadenine]	0.001 µM	–	52 ± 32 U/ml	603 ± 147 U/ml	0.14 mg/mL (≈ 350 µM)	0.001 mg/mL (≈ 2.5 µM)	< 0.001 mg/mL	–
CCCCOc1nc(N)c2nc(O)n(Cc3ccc(N(C)C)nc3)c2n1 [Example 16, 2-Butoxy-9-(6-dimethylamino-3-pyridylmethyl)-8-hydroxyadenine]	0.001 µM	–	251 ± 46 U/ml	716 ± 155 U/ml	0.293 mg/mL (≈ 820 µM)	–	–	–
CCCCNc1nc(N)c2nc(O)n(Cc3cccnc3Cl)c2n1 [Example 18, 2-Butylamino-9-(2-chloro-3-pyridylmethyl)-8-hydroxyadenine]	0.01 µM	–	–	94 ± 49 U/ml	–	–	–	–
CCCCNc1nc(N)c2nc(O)n(Cc3ccc(Cl)nc3Cl)c2n1 [Example 23, 2-Butylamino-9-(2,6-dichloro-3-pyridylmethyl)-8-hydroxyadenine]	0.01 µM	414 ± 118 U/ml	–	–	–	–	–	Interferon-inducing activity (Balb/c male mouse; [7]): 42 ± 7 U/ml
CCCCNc1nc(N)c2nc(O)n(Cc3ccc(N(C)C)nc3)c2n1 [Example 24, 2-Butylamino-9-(6-dimethylamino-3-pyridylmethyl)-8-hydroxyadenine]	0.003 µM	–	–	403 ± 146 U/ml	27 mg/mL (≈ 75800 µM)	0.022 mg/mL (≈ 61.7 µM)	0.001 mg/mL (≈ 2.81 µM)	–
CCCCOc1nc(N)c2nc(O)n(Cc3cccnc3C)c2n1 [Example 26, 2-Butoxy-8-hydroxy-9-(2-methyl-3-pyridylmethyl)adenine]	0.001 µM	–	433 ± 366 U/ml	780 ± 190 U/ml	> 1 mg/mL	0.006 mg/mL (≈ 18.3 µM)	0.003 mg/mL (≈ 9.14 µM)	Interferon-inducing activity (Balb/c male mouse; po, 0.03 mg/kg, 2 h): 121 ± 11 U/ml
CCCCNc1nc(N)c2nc(O)n(Cc3cccnc3C)c2n1 [Example 28, 2-Butylamino-8-hydroxy-9-(2-methyl-3-pyridylmethyl)adenine]	0.01 µM	–	186 ± 62 U/ml	1462 ± 260 U/ml	> 1 mg/mL	0.008 mg/mL (≈ 24.4 µM)	0.004 mg/mL (≈ 12.2 µM)	–
CCCCNc1nc(N)c2nc(O)n(Cc3ccc(C)nc3Cl)c2n1 [Example 29, 2-Butylamino-9-(2-chloro-6-methyl-3-pyridylmethyl)-8-hydroxyadenine]	0.01 µM	619 ± 268 U/ml	–	–	–	–	–	–
COCCOc1nc(N)c2nc(O)n(Cc3cccnc3)c2n1 [Example 31, 8-Hydroxy-2-(2-methoxy)ethoxy-9-(3-pyridylmethyl)adenine]	–	–	–	–	–	–	–	Solubility (level of compound in supernatant) ([1]; pH 2.5 buffer): >1,000 μg/ml; Solubility (level of compound in supernatant) ([1]; pH 5.5 buffer): 353 µg/mL; Solubility (level of compound in supernatant) ([1]; pH 7.4 buffer): 322 µg/mL
COc1nc(N)c2nc(O)n(Cc3cccnc3)c2n1 [Example 32, 8-Hydroxy-2-methoxy-9-(3-pyridylmethyl)adenine]	–	–	–	–	> 1 mg/mL	0.082 mg/mL (≈ 301 µM)	0.025 mg/mL (≈ 91.8 µM)	–

Source: patent publication US7521454B2 (Dainippon Sumitomo Pharma Co., Ltd., priority 2001, dated 2009)
